Here are results for three molecules from paper PMC11477482 (Molecules, 2024).

The structures appear in SMILES notation. Entries after “also recorded” stand apart in the source; their conditions may differ.

Data set [1] is described as follows: Photostability under UVA + UVB radiation. The class given is physicochemical. Conditions: for variation in absorbance after irradiation: UVA + UVB, up to 15 min. As for the experimental part: Three independent compound solutions (100 µM) were prepared and exposed to light. A volume of 50 mL of each sample replicate was exposed side-by-side under a UV lamp at a […] distance through an appropriate duration of time. These conditions were monitored using calibrated radiometers. The lamp used as light source for the photostability assay emitted an irradiance of 0.62 mW/cm^2 and 0.74 mW/cm^2 of UVA and UVB light, respectively. A UV lamp (Osram, Ultra-Vitalux, 300 W) was positioned at a height of 54 cm. The UV lamp was turned on 1 h before the experiment, and the UVA and UVB irradiances were measured, maintaining the controlled temperature. At the end of the exposure period, the absorbance spectrum was measured between 200 nm and 800 nm using a UV–vis spectrophotometer. The exposed samples were analyzed concomitantly with protected samples (dark controls). Photostability was evaluated by comparing the UV–vis spectra at each evaluation time for each antioxidant.

A short description of data set [2]: DSC thermal analysis and compatibility with excipients. In kind it is physicochemical. Conditions: for compatibility with Carbopol 980 (CP) / compatibility with EDTA / compatibility with hydroxyethylcellulose (HEC) / compatibility with miglyol 812 (MIG) / compatibility with stearyl alcohol (SA) / compatibility with tocopherol (TP): 1:1 (w/w) mixture; for Tonset / Tpeak / ΔH: compound alone, 10 °C/min, nitrogen. How it is done:
A differential scanning calorimeter (DSC) 200F3 Maia (Netzsh-Gerätebau GmbH, Selb, Germany) was used for thermal analysis of the ingredients and mixtures. Typical excipients of topical formulations with different functions were selected for this study. The physical mixtures between compounds and the excipients were prepared in a ratio of 1:1 (w/w). Individual samples and the physical mixtures were weighed directly in the pierced DSC aluminum pan and scanned in the temperature range of 20–400 °C under nitrogen atmosphere with flow of 40 mL/min, with a heating rate of 10 °C/min. An empty aluminum pan was used as reference. The onset temperature and melting enthalpy (ΔH) were calculated using Proteus Analysis software (Version 6.1, NETZSCH-Gerätebau GmbH, Germany). The DSC cell was calibrated (sensitivity and temperature calibration) with Hg (m.p. −38.8 °C), In (m.p. 156.6 °C), Sn (m.p. 231.9 °C), Bi (m.p. 271.4 °C), Zn (m.p. 419.5 °C), and CsCl (m.p. 476.0 °C) as standards.

Data set [3] is described as follows: DPPH radical scavenging assay. Conditions: ethanol, 15 min in the dark, 517 nm; ± SD. How it is done:
Stock solutions of each compound (100 µM) and DPPH solution (150 µM) were prepared in ethanol. Different concentrations of antioxidant solutions (0.1–50 µM) were prepared to test their antioxidant effect. In a 96-well plate, 100 µL of DPPH working solution was added to a 100 µL sample solution and incubated at room temperature for 15 min in the dark. The absorbance of each sample was measured at 517 nm, in a microplate reader. For the negative control, 100 μL ethanol was added instead of the antioxidant solution. Rutin was used as the positive control. Inhibition curves were constructed, and the half maximal effective concentration (EC50) values were calculated for all samples by linear regression for the three independent assays performed.

The test system of data set [4] is THP-1 cells (DNFB-induced CD54 and CD86 expression). In words: Inhibition of THP-1 maturation induced by the allergen DNFB (anti-allergic activity). The class given is cell-based, human. To be noted: DNFB 8 µM. As for the experimental part: The human keratinocytes (HaCaT, CLS 300493, Eppelheim, Germany) cell line was cultured with Dulbecco’s Modified Eagle’s Medium (DMEM) (Sigma-Aldrich, St. Louis, MO, USA), supplemented with 10% (v/v) of heat-inactivated fetal bovine serum (FBS), 1% (v/v) antibiotic solution (from a 10,000 U/mL penicillin and 10,000 μg/mL streptomycin stock) (Gibco, Carlsbad, CA, USA), 3.7 g/L sodium bicarbonate, and 1 mM sodium pyruvate (Sigma-Aldrich, St. Louis, MO, USA). The cell culture of keratinocytes was detached with EDTA solution 1X (Sigma-Aldrich, St. Louis, MO, USA) when the cells reached 70–80% confluence in cell culture flasks. The mouse macrophage cell line (RAW 264.7, ATCC TIB-71, Manassas, VA, USA) was cultured in DMEM supplemented with 10% (v/v) non-inactivated FBS, 1% (v/v) antibiotic solution, 1.5 g/L sodium bicarbonate, and 1 mM sodium pyruvate. Macrophages were mechanically detached with a cell scraper and subcultured in (1:10) proportion of cellular suspension to a final volume of DMEM. The human monocytic cell line THP-1 (ATCC® TIB-202™, American Type Culture Collection, Manassas, VA, USA) was cultivated in RPMI 1640 supplemented with 10% inactivated FBS, 25 mM (D)-glucose, 10 mM HEPES, 1 mM sodium pyruvate, 100 U/mL penicillin, and 100 μg/mL streptomycin, and maintained at a cell density of 0.4 × 10^6 cells/mL. Cells were subcultured every 2 or 3 days and maintained in culture for 2–3 months, according to ATCC® instructions.
Following OECD guidelines, researchers utilized the THP-1 human monocyte cell line as a substitute for dendritic cells (DCs) to assess skin sensitization potential. Adapting OECD Test Guideline No. 442E [24], cell density was adjusted to 5.0 × 10^5 cells/mL and allowed to stabilize overnight at 37 °C. Then, 1.5 mL/well of cell suspension was added to a 12-well plate, and solutions of AA, AAG, and AAGS (500 µM) were applied. After 1 h of pre-incubation, a solution of DNFB was added (8 µM), and the cells were further incubated for 24 h. Afterwards, the cells were centrifuged at 300× g for 5 min, the supernatant was discarded, and the cell pellet was washed with PBS containing 1% FBS (2 × 1 mL) and centrifuged. The cell pellet was resuspended in 1 mL of PBS/1% FBS and 200 µL were collected in two microtubes: 100 µL for the unstained (UNST) and 100 µL for the stained (CD5486) conditions. For each stained condition, anti-CD54-APC and anti-CD86-Alexa Fluor 488 (BioLegend, London, UK) were added, and the cells were incubated for 30 min at 4 °C, protected from light. Then, cells were washed twice with 1 mL PBS/1% FBS solution and centrifuged. The cell pellet was further resuspended in 100 µL of PBS and analyzed by flow cytometry using a BD Accuri™ C6 cytometer (San Jose, CA, USA).
CD86 and CD54 levels were analyzed by flow cytometry using the acquisition channels FL1 and FL4. Mitochondrial O2^− production was measured by flow cytometry using the acquisition channel FL2. The relative fluorescence intensity (RFI) of CD86 and CD54 (THP-1 maturation assay) and MitoSOX (mitochondrial antioxidant activity) in the control and chemical-treated cells, based on the geometric mean fluorescence intensity (MFI), was calculated according to the following equation: RFI=MFI of chemical treated cells−MFI of chemical treated unstained cells/MFI of control treated cells−MFI of control unstained cells ×100
The results of at least three independent experiments were represented as a percentage of the control RFI, which was assumed to be 100%.

Setting [5] is: compound 500 µM, 1 h pre-incubation, 24 h, mean ± SEM.

Consider `O=C1O[C@H]([C@@H](O)CO)C(O)=C1O` [AA, Ascorbic acid], for which the “increase of absorbance (hyperchromic effect)” value in data set [1] (after 5 min of UV exposure (UVA + UVB)) was around 50%. Besides, in data set [2], the “compatibility with Carbopol 980 (CP)” value was “Weak interferences”, the “compatibility with EDTA” value is “Weak interferences”, the Tonset came out at 192.9 °C and the Tpeak was 197.1 °C. The molecule also gave a ΔH in data set [2] of -328.6 J/g. For the same molecule, a half-maximal effect in data set [3] (EC50) was put at 1.54 ± 0.21 µM. Further, the “anti-allergic profile regarding CD86” value in data set [4] (500 µM) was “exhibited anti-allergic profile”.
In the case of `O=C1O[C@H]([C@@H](O)CO)C(O)=C1O[C@H]1O[C@H](CO)[C@@H](O)[C@H](O)[C@H]1O` [AAG, 2-O-α-D-glucopyranosyl-L-ascorbic acid], in data set [1], the “variation in absorbance after irradiation” value is listed as “slight variation in the absorbance”. For the same molecule, in data set [2], the “compatibility with EDTA” value is “more compatible”, the “compatibility with hydroxyethylcellulose (HEC)” value is given as “Weak interferences”, the “compatibility with miglyol 812 (MIG)” value is reported as “more compatible” and the “compatibility with stearyl alcohol (SA)” value is on record as “Weak interferences”. In data set [2], the “compatibility with tocopherol (TP)” value was “more compatible”, the Tonset stood at 173.0 °C, the Tpeak was determined as 176.4 °C and the ΔH is -139.8 J/g. In data set [3], this molecule gave a concentration giving a half-maximal response (EC50) of 9.15 ± 0.13 µM. Further, in data set [4] (setting [5]), the “RFI of CD54 expression, DNFB-induced maturation” value is reported as 995.78% ± 80.51%.
As to `O=C1OC(C(COS(=O)(=O)O)OS(=O)(=O)O)C(OS(=O)(=O)O)=C1OC1OC(COS(=O)(=O)O)C(OS(=O)(=O)O)C(OS(=O)(=O)O)C1OS(=O)(=O)O` [AAGS, 2-O-α-D-glucopyranosyl-L-ascorbic acid persulfate], the “variation in absorbance after irradiation” value in data set [1] was “practically imperceptible”. Also, in data set [2], the “compatibility with Carbopol 980 (CP)” value was “Weak interferences”, the “compatibility with hydroxyethylcellulose (HEC)” value is on record as “more compatible; also recorded: favorable compatibility”, the “compatibility with miglyol 812 (MIG)” value was “more compatible” and the “compatibility with stearyl alcohol (SA)” value was “Weak interferences”. For the same molecule, in data set [2], the “compatibility with tocopherol (TP)” value was “more compatible”, the Tonset was found to be 195.0 °C, the Tpeak worked out at 200.5 °C and the ΔH is reported as 223.1 J/g. The molecule also showed an EC50 in data set [3] of 5.28 ± 0.36 µM. Also, in data set [4] (500 µM), the “anti-allergic profile regarding CD86” value is recorded as “exhibited anti-allergic profile” and the “inhibition of DNFB-induced maturation of THP-1 cells” value is “anti-allergic activity”. Besides, in data set [4] (setting [5]), the “RFI of CD54 expression, DNFB-induced maturation” value was 986.89% ± 80.51% and the “RFI of CD86 expression, DNFB-induced maturation” value is reported as 168.90% ± 16.30%.
